The structures appear in SMILES notation.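 The compound was tested at five concentrations on cells cultured in 96-well plates, with a 48-hour exposure period. Here, GI50 denotes the concentration required for 50% inhibition of growth.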 Active and inactive are the calls of the source. Rule as the data show it: active = GI50 up to about 1.1 µM and inactive = higher.

What all share (experiment): growth of human tumour cells (NCI), 48 h
In assay [1] the test system is SNB-78.
Assay [2] has as its system DMS-273.
Assay [3] has as its system KM-20L2.
The subject of assay [4] is M19-MEL.
Assay [5] has as its system XF498.
Assay [6] concerns DMS-114.
Assay [7] deals with HOP-18.
The test system of assay [8] is LXFL 529.
Assay [9] deals with RXF 631.

Regarding `CC(=O)CNC(=O)OC(C)(C)C`, the GI50 in assay [1], in assay [2], in assay [3], in assay [4], in assay [5] and in assay [6] was > 100 µM (inactive) throughout.
With `C1OC1CO[C@@H]1CO[C@H]2[C@@H]1OC[C@H]2OCC1CO1` (stereo partly specified), the GI50 in [7], in [1], in [2], in assay [3], in assay [4] and in [5] was > 100 µM (inactive) each time. Moreover, in [6], the GI50 was > 100 µM (inactive).
Turning to `O=C(COc1ccc2c(=O)cc(-c3ccc(Cl)cc3)oc2c1)N1CCN(c2ccccc2)CC1`, the GI50 is 11.9 µM (inactive) in assay [8]; 6.58 µM (inactive) in [9]; 5.11 µM (inactive) in assay [1]; > 100 µM (inactive) in [3]; > 100 µM (inactive) in [4]; > 100 µM (inactive) in assay [5].
Consider `O=C1N[C@@H](O)[C@@H]2ON=C(c3ccccc3)[C@H]12`, for which the GI50 in assay [8], in assay [7], in assay [9], in [2], in assay [3] and in assay [4] was > 100 µM (inactive) throughout. In addition, the GI50 in assay [5] and in assay [6] was > 100 µM (inactive) each time.
Turning to `COc1ccc(-c2nc3c(nc2-c2ccc(OC)cc2)C(N)=NS(=O)(=O)N3)cc1`, the GI50 in assay [9], in [2], in [4] and in [6] was > 100 µM (inactive) throughout.
Turning to `CCOc1ccc(N2C(=O)/C(=C/c3ccc(N(CCC#N)CCC#N)cc3)N=C2c2cc([N+](=O)[O-])ccc2Cl)cc1`, the GI50 in assay [8] is 30 µM (inactive); in assay [7], > 100 µM (inactive); in assay [9], 39.6 µM (inactive); in [1], > 100 µM (inactive); in assay [2], 14.7 µM (inactive); in assay [4], 24.2 µM (inactive). Further, the GI50 in [6] is 33.9 µM (inactive).
On to `O=C(/C=C1/Nc2ccc([N+](=O)[O-])cc2NC1O)c1cccc([N+](=O)[O-])c1` (stereo unspecified), for which the GI50 in [8] is 19.9 µM (inactive); in assay [1], > 100 µM (inactive); in assay [2], 16.3 µM (inactive); in assay [3], 25.4 µM (inactive); in [4], 58.3 µM (inactive); in assay [5], > 100 µM (inactive). Further, in assay [6], the GI50 was 32.1 µM (inactive).
For the compound `O=C(c1ccc(Cl)cc1)C1OC12C(=O)Nc1ccccc12` (stereo unspecified), the GI50 in [8] was 3.08 µM (inactive); in assay [7] it was 13.9 µM (inactive); in assay [9], 17 µM (inactive); in [1], 16 µM (inactive); in assay [2] it was 12.7 µM (inactive); in assay [3], 19.4 µM (inactive). For the same compound, the results for the GI50 in [4], in assay [5] and in assay [6] were 10.4 µM (inactive), 12.5 µM (inactive) and 12.4 µM (inactive), respectively.
Consider `O=C(/C=C/c1ccc(OCCCCCCCCCCOc2ccc(/C=C/C(=O)c3ccc(Cl)cc3)cc2)cc1)c1ccc(Cl)cc1`, for which the GI50 in assay [7], in assay [9], in assay [1], in [2], in assay [3] and in [6] was > 100 µM (inactive) each time.
Consider `O=C1c2ccccc2C(=O)c2nc(-c3ccccc3)c(-c3ccccc3)nc21`, for which the GI50 was > 100 µM (inactive) in assay [8]; 26.7 µM (inactive) in [7]; 33.4 µM (inactive) in assay [9]; > 100 µM (inactive) in [1]; 33.7 µM (inactive) in assay [2]; 50.5 µM (inactive) in assay [3]. For the same compound, the values for the GI50 in [4], in [5] and in assay [6] were 0.427 µM (active), 14.4 µM (inactive) and 1.21 µM (inactive), respectively.
Take `c1ccc(SC23C4C5C6C4C2C6C53)nc1` (stereo unspecified): the GI50 is > 100 µM (inactive) in assay [8]; 4.86 µM (inactive) in assay [7]; > 100 µM (inactive) in assay [9]; > 100 µM (inactive) in assay [1]; > 100 µM (inactive) in assay [2]; > 100 µM (inactive) in [3]. Besides, the GI50 in assay [4] and in assay [6] was > 100 µM (inactive) each time.
In the case of `O=C(CC(=O)c1cccc2ccccc12)C(=O)NC1C2CC3CC(C2)CC1C3` (stereo unspecified), the GI50 in assay [8] was > 100 µM (inactive); in assay [7] it was 60.1 µM (inactive); in [9] it was > 100 µM (inactive); in assay [1], > 100 µM (inactive); in [2], > 100 µM (inactive); in assay [3], > 100 µM (inactive). Moreover, the GI50 in assay [4], in [5] and in assay [6] was > 100 µM (inactive) in each case.
`CN(C)C(=S)Nc1nnc(Nc2ccccc2)s1`: the GI50 in assay [8], in assay [7], in assay [9], in assay [1], in assay [2] and in assay [3] was > 100 µM (inactive) in each case. Moreover, in assay [4], the GI50 is > 100 µM (inactive).
Regarding `CCCCN(Cc1ccccc1)/C(=N/C#N)N(Cc1ccccc1)Cc1ccccc1`, the GI50 is 7.94 µM (inactive) in [8]; 24.2 µM (inactive) in [1]; 16.6 µM (inactive) in assay [2]; 6.82 µM (inactive) in assay [3]; 24.4 µM (inactive) in assay [4].
`COC(=O)/C=C/c1cc(OC)c(OC)c(OC)c1`: the GI50 in assay [8] is > 100 µM (inactive); in assay [7], > 100 µM (inactive); in assay [9], 82.4 µM (inactive); in assay [2], > 100 µM (inactive); in [3], > 100 µM (inactive); in [4], 93.8 µM (inactive). Besides, the GI50 in assay [5] and in [6] was > 100 µM (inactive) in each case.
`Cc1ccc(C2(O)CC(c3ccc([N+](=O)[O-])o3)=NN2C(=O)COc2ccc(Cl)cc2)cc1` (stereo unspecified): the GI50 in [8] is 2.79 µM (inactive); in assay [7], 20.9 µM (inactive); in [1], 12.9 µM (inactive); in assay [2], 6.32 µM (inactive); in assay [3], 7.18 µM (inactive); in assay [4], 3.67 µM (inactive). Moreover, the GI50 was 11.4 µM (inactive) in assay [5] and 9.86 µM (inactive) in assay [6].
`COc1ccc(/C(=N\NC(=N)N)C(c2ccc(OC)cc2)C2OC(=O)c3ccccc32)cc1` (stereo unspecified): the GI50 in assay [8], in [9], in assay [1], in assay [2], in assay [3] and in [4] was > 100 µM (inactive) each time. Further, the GI50 in assay [5] and in [6] was > 100 µM (inactive) each time.
As for `CC1(C)C(=O)N(c2ccccc2)C(=O)N1c1nc2ccccc2[nH]1`, the GI50 in [8] is 85.3 µM (inactive); in assay [7], > 100 µM (inactive); in assay [9] it was > 100 µM (inactive); in [1], > 100 µM (inactive); in assay [2] it was > 100 µM (inactive); in assay [3], > 100 µM (inactive). The GI50 in assay [4] was > 100 µM (inactive); in assay [5], 92.7 µM (inactive); in assay [6], 38.7 µM (inactive).
For the compound `CCC/C(=N\NC(=S)N1CCN(c2ccccn2)CC1)c1ccccn1`, the GI50 in assay [8] is < 0.001 µM (active); in assay [7], 0.00887 µM (active); in assay [9] it was 0.133 µM (active); in assay [1], 0.583 µM (active); in assay [2], 0.00117 µM (active); in assay [3] it was < 0.001 µM (active). Further, the GI50 in [4] is 0.0366 µM (active); in assay [5] it was < 0.001 µM (active); in assay [6] it was < 0.001 µM (active).
As for `C1=CC(N(c2ccccc2)C2C=CCCC2)CCC1` (stereo unspecified), the GI50 in assay [8] is > 100 µM (inactive); in [7], > 100 µM (inactive); in [2] it was > 100 µM (inactive); in assay [3] it was 72.6 µM (inactive); in assay [4], > 100 µM (inactive); in [6], 67.3 µM (inactive).
On to `Clc1cccc(-c2nnc(-c3nn(-c4ccccc4)c4nc5ccccc5nc34)o2)c1`, for which the GI50 in assay [8] is 78.9 µM (inactive); in assay [7] it was > 100 µM (inactive); in [1] it was > 100 µM (inactive); in assay [2], > 100 µM (inactive); in assay [3], > 100 µM (inactive); in [4], > 100 µM (inactive). The GI50 is 43.8 µM (inactive) in assay [5] and > 100 µM (inactive) in assay [6].
With `O=C1Nc2ccccc2C12CCNC2Cc1ccccc1` (stereo unspecified), the GI50 was > 100 µM (inactive) in assay [8]; 78.3 µM (inactive) in assay [7]; > 100 µM (inactive) in assay [2]; > 100 µM (inactive) in assay [3]; > 100 µM (inactive) in [4]; > 100 µM (inactive) in assay [5]. Further, in assay [6], the GI50 is > 100 µM (inactive).
In the case of `COc1ccc(C2S/C(=C\c3ccc([N+](=O)[O-])cc3)C(=O)N2NC(=O)Cc2ccccc2)cc1` (stereo unspecified), the GI50 in assay [8] was > 100 µM (inactive); in [7], > 100 µM (inactive); in assay [2], > 100 µM (inactive); in [4], > 100 µM (inactive); in assay [6], 45.8 µM (inactive).

The record behind these values is ChEMBL document CHEMBL1201862, “PubChem BioAssay data set” (2004).
